Measurements published in patent US6525001B1, “Substituted pyrimidine and pyridine herbicides” (Mid-American Commercialization Corporation, priority 1997, dated 2003).

Columns and labels:
Type in all cases: in vivo
[1] = test system: smallflower flatsedge (Cyperus difformis); experiment: Test B flood test
How it was run: (§1)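 Read-out is a visual response score from 0 (no effect) to 10 (complete control), assigned by comparison with untreated controls. Treatment was applied at the 2-leaf stage, and plants stayed in the greenhouse for twelve to sixteen days before scoring.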

rice (Oryza sativa) = experiment: Test B flood test
How it was run: as §1

[2] = test system: bamyardgrass (Echinochloa crus-galli); experiment: Test B flood test
How it was run: as §1

[3] = test system: duck salad (Heteranthera limosa); experiment: Test B flood test
How it was run: as §1

[4] = test system: momingglory (Ipomoea hederacea); experiment: Test B pre-/postemergence; design: key: 0 is no effect; 10 is complete control
How it was run: (§2)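 Compounds in a surfactant-containing, non-phytotoxic solvent blend are applied to freshly planted seed (preemergence) and, concurrently, to seedlings of 2 to 18 cm at 1–4 leaves (postemergence). Plants stay in the greenhouse twelve to sixteen days and are then scored visually from 0 (no effect) to 10 (complete control).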

rape (Brassica napus) = experiment: Test B pre-/postemergence; design: key: 0 is no effect; 10 is complete control
How it was run: as §2

[5] = test system: sugar beet (Beta vulgaris); experiment: Test B pre-/postemergence; design: key: 0 is no effect; 10 is complete control
How it was run: as §2

[6] = test system: blackgrass (Alopecurus myosuroides); experiment: Test B pre-/postemergence; design: key: 0 is no effect; 10 is complete control; conditions: for Blackgrass plant response rating: Preemergence
How it was run: as §2

[7] = test system: cocklebur (Xanthium strumarium); experiment: Test B pre-/postemergence; design: key: 0 is no effect; 10 is complete control; conditions: for Cocklebur plant response rating: Preemergence
How it was run: as §2

[8] = test system: purple nutsedge (Cyperus rotundus); experiment: Test B pre-/postemergence; design: key: 0 is no effect; 10 is complete control; conditions: Postemergence
How it was run: as §2

[9] = test system: wheat (Triticum aestivum); experiment: Test B pre-/postemergence; design: key: 0 is no effect; 10 is complete control
How it was run: as §2

[10] = test system: pigweed (Amaranthus retroflexus); experiment: Test B pre-/postemergence; design: key: 0 is no effect; 10 is complete control
How it was run: as §2

[11] = test system: broadleaf signalgrass (Brachiaria decumbens); experiment: Test B pre-/postemergence; design: key: 0 is no effect; 10 is complete control; conditions: for B. signalgrass plant response rating: Preemergence
How it was run: as §2

[12] = test system: crabgrass (Digitaria sanguinalis); experiment: Test B pre-/postemergence; design: key: 0 is no effect; 10 is complete control; conditions: for Crabgrass plant response rating: Preemergence
How it was run: as §2

wild oat (Avena fatua) = experiment: Test B pre-/postemergence; design: key: 0 is no effect; 10 is complete control
How it was run: as §2

corn (Zea mays) = experiment: Test B pre-/postemergence; design: key: 0 is no effect; 10 is complete control; conditions: for Corn plant response rating: Preemergence
How it was run: as §2

soybean (Glycine max) = experiment: Test B pre-/postemergence; design: key: 0 is no effect; 10 is complete control
How it was run: as §2

[13] = test system: bedstraw (Galium aparine); experiment: Test B pre-/postemergence; design: key: 0 is no effect; 10 is complete control; conditions: for Bedstraw plant response rating: Preemergence
How it was run: as §2

[14] = test system: velvetleaf (Abutilon theophrasti); experiment: Test B pre-/postemergence; design: key: 0 is no effect; 10 is complete control
How it was run: as §2

[15] = test system: giant foxtail (Setaria faberii); experiment: Test B pre-/postemergence; design: key: 0 is no effect; 10 is complete control
How it was run: as §2

[16] = Rate 62 g/ha, Postemergence (flood test)
[17] = Rate 125 g/ha, Postemergence section (flood test species)
[18] = Rate 250 g/ha, Postemergence (flood test species)
[19] = Rate 125 g/ha, Postemergence, flood test
[20] = Rate 250 g/ha, Postemergence (so in the source)

CCc1cnc(-c2ccc(C(F)(F)F)cc2)nc1Cc1cccc(OC(F)(F)F)c1 [Compound 41]
Plant response rating, S. Flatsedge [1, 16]: 5 | S. Flatsedge plant response rating [1, 17]: 7 | Plant response rating, S. Flatsedge [1, 18]: 9 | Plant response rating, Rice (rice (Oryza sativa); [16]): 5 | Rice plant response rating (rice (Oryza sativa); [17]): 5 | Plant response rating, Rice (rice (Oryza sativa); [18]): 6 | Plant response rating, Barnyardgrass [2, 16]: 5 | Plant response rating, Barnyardgrass [2, 19]: 5 | Plant response rating, Barnyardgrass [2, 18]: 5 | Plant response rating, Ducksalad [3, 16]: 2 | Plant response rating, Ducksalad [3, 19]: 3 | Plant response rating, Ducksalad [3, 18]: 5 | Plant response rating, Morningglory ([4]; Rate 62 g/ha, Postemergence): 8 | Morningglory plant response rating ([4]; Rate 62 g/ha, Preemergence): 1 | Morningglory plant response rating ([4]; Rate 125 g/ha, Postemergence): 8 | Morningglory plant response rating ([4]; Rate 125 g/ha, Preemergence): 1 | Plant response rating, Morningglory ([4]; Rate 250 g/ha, Postemergence): 8 | Plant response rating, Morningglory [4, 20]: 2 | Plant response rating, Rape (rape (Brassica napus); Rate 62 g/ha, Postemergence): 10 | Rape plant response rating (rape (Brassica napus); Rate 62 g/ha, Preemergence): 3 | Rape plant response rating (rape (Brassica napus); Rate 125 g/ha, Postemergence): 10 | Rape plant response rating (rape (Brassica napus); Rate 125 g/ha, Preemergence): 3 | Plant response rating, Rape (rape (Brassica napus); Rate 250 g/ha, Postemergence): 10 | Plant response rating, Rape (rape (Brassica napus); [20]): 4 | Plant response rating, Sugarbeets ([5]; Rate 62 g/ha, Postemergence): 10 | Sugarbeets plant response rating ([5]; Rate 62 g/ha, Preemergence): 3 | Sugarbeets plant response rating ([5]; Rate 125 g/ha, Postemergence): 10 | Plant response rating, Sugarbeets ([5]; Rate 125 g/ha, Preemergence): 6 | Plant response rating, Sugarbeets ([5]; Rate 250 g/ha, Postemergence): 10 | Plant response rating, Sugarbeets [5, 20]: 8 | Plant response rating, Blackgrass ([6]; Rate 62 g/ha, Postemergence): 5 | Blackgrass plant response rating ([6]; Rate 62 g/ha): 7 | Plant response rating, Blackgrass ([6]; Rate 125 g/ha, Postemergence): 6 | Blackgrass plant response rating ([6]; Rate 125 g/ha): 9 | Plant response rating, Blackgrass ([6]; Rate 250 g/ha, Postemergence): 8 | Plant response rating, Blackgrass [6, 20]: 10 | Plant response rating, Cocklebur ([7]; Rate 62 g/ha, Postemergence): 7 | Cocklebur plant response rating ([7]; Rate 62 g/ha): 0 | Plant response rating, Cocklebur ([7]; Rate 125 g/ha, Postemergence): 8 | Cocklebur plant response rating ([7]; Rate 125 g/ha): 0 | Plant response rating, Cocklebur ([7]; Rate 250 g/ha, Postemergence): 9 | Plant response rating, Cocklebur [7, 20]: 0 | Plant response rating, Nutsedge ([8]; Rate 62 g/ha): 0 | Nutsedge plant response rating ([8]; Rate 125 g/ha): 0 | Plant response rating, Nutsedge ([8]; Rate 250 g/ha): 0 | Wheat plant response rating ([9]; Rate 62 g/ha, Postemergence): 2 | Wheat plant response rating ([9]; Rate 62 g/ha, Preemergence): 1 | Wheat plant response rating ([9]; Rate 125 g/ha, Postemergence): 3 | Plant response rating, Wheat ([9]; Rate 125 g/ha, Preemergence): 1 | Plant response rating, Wheat ([9]; Rate 250 g/ha, Postemergence): 3 | Plant response rating, Wheat [9, 20]: 2 | Plant response rating, Redroot pigweed ([10]; Rate 62 g/ha, Postemergence): 9 | Redroot pigweed plant response rating ([10]; Rate 62 g/ha, Preemergence): 4 | Redroot pigweed plant response rating ([10]; Rate 125 g/ha, Postemergence): 10 | Redroot pigweed plant response rating ([10]; Rate 125 g/ha, Preemergence): 10 | Plant response rating, Redroot pigweed ([10]; Rate 250 g/ha, Postemergence): 10 | Plant response rating, Redroot pigweed [10, 20]: 10 | Plant response rating, B. signalgrass ([11]; Rate 62 g/ha, Postemergence): 2 | B. signalgrass plant response rating ([11]; Rate 62 g/ha): 2 | Plant response rating, B. signalgrass ([11]; Rate 125 g/ha, Postemergence): 3 | B. signalgrass plant response rating ([11]; Rate 125 g/ha): 6 | Plant response rating, B. signalgrass ([11]; Rate 250 g/ha, Postemergence): 6 | Plant response rating, B. signalgrass ([11]; Rate 250 g/ha, Postemergence as printed in head r139 (second section for compounds 26-50)): 7 | Plant response rating, Crabgrass ([12]; Rate 62 g/ha, Postemergence): 7 | Crabgrass plant response rating ([12]; Rate 62 g/ha): 8 | Plant response rating, Crabgrass ([12]; Rate 125 g/ha, Postemergence): 9 | Crabgrass plant response rating ([12]; Rate 125 g/ha): 9 | Plant response rating, Crabgrass ([12]; Rate 250 g/ha, Postemergence): 10 | Plant response rating, Crabgrass [12, 20]: 9 | Wild oats plant response rating (wild oat (Avena fatua); Rate 62 g/ha, Postemergence): 4 | Wild oats plant response rating (wild oat (Avena fatua); Rate 62 g/ha, Preemergence): 4 | Wild oats plant response rating (wild oat (Avena fatua); Rate 125 g/ha, Postemergence): 5 | Plant response rating, Wild oats (wild oat (Avena fatua); Rate 125 g/ha, Preemergence): 9 | Plant response rating, Wild oats (wild oat (Avena fatua); Rate 250 g/ha, Postemergence): 7 | Plant response rating, Wild oats (wild oat (Avena fatua); [20]): 9 | Plant response rating, Corn (corn (Zea mays); Rate 62 g/ha, Postemergence): 2 | Corn plant response rating (corn (Zea mays); Rate 62 g/ha): 0 | Plant response rating, Corn (corn (Zea mays); Rate 125 g/ha, Postemergence): 2 | Corn plant response rating (corn (Zea mays); Rate 125 g/ha): 1 | Plant response rating, Corn (corn (Zea mays); Rate 250 g/ha, Postemergence): 3 | Plant response rating, Corn (corn (Zea mays); [20]): 1 | Plant response rating, Soybean (soybean (Glycine max); Rate 62 g/ha, Postemergence): 5 | Soybean plant response rating (soybean (Glycine max); Rate 62 g/ha, Preemergence): 0 | Soybean plant response rating (soybean (Glycine max); Rate 125 g/ha, Postemergence): 7 | Plant response rating, Soybean (soybean (Glycine max); Rate 125 g/ha, Preemergence): 0 | Plant response rating, Soybean (soybean (Glycine max); Rate 250 g/ha, Postemergence): 7 | Plant response rating, Soybean (soybean (Glycine max); [20]): 1 | Plant response rating, Bedstraw ([13]; Rate 62 g/ha, Postemergence): 9 | Bedstraw plant response rating ([13]; Rate 62 g/ha): 2 | Plant response rating, Bedstraw ([13]; Rate 125 g/ha, Postemergence): 9 | Bedstraw plant response rating ([13]; Rate 125 g/ha): 2 | Plant response rating, Bedstraw ([13]; Rate 250 g/ha, Postemergence): 10 | Plant response rating, Bedstraw [13, 20]: 8 | Plant response rating, Velvetleaf ([14]; Rate 62 g/ha, Postemergence): 8 | Velvetleaf plant response rating ([14]; Rate 62 g/ha, Preemergence): 1 | Velvetleaf plant response rating ([14]; Rate 125 g/ha, Postemergence): 8 | Plant response rating, Velvetleaf ([14]; Rate 125 g/ha, Preemergence): 3 | Plant response rating, Velvetleaf ([14]; Rate 250 g/ha, Postemergence): 8 | Plant response rating, Velvetleaf [14, 20]: 10 | Plant response rating, Giant foxtail ([15]; Rate 62 g/ha, Postemergence): 2 | Giant foxtail plant response rating ([15]; Rate 62 g/ha, Preemergence): 6 | Giant foxtail plant response rating ([15]; Rate 125 g/ha, Postemergence): 6 | Giant foxtail plant response rating ([15]; Rate 125 g/ha, Preemergence): 9 | Plant response rating, Giant foxtail ([15]; Rate 250 g/ha, Postemergence): 9 | Plant response rating, Giant foxtail [15, 20]: 10
